Here are results for one substance from patent US10561704B2, “Compositions and methods for treating neuropsychiatric disorders using an endothelin-B receptor agonist” (MIDWESTERN UNIVERSITY, priority 2013, dated 2020).

The test system of test [1] is postnatal rat brain. The test can be described thus: Immunofluorescent labeling of ETB receptors, VEGF and NGF in the postnatal rat brain after IRL-1620. Particulars: IRL-1620 on postnatal day 21, brain at day 28, vs control. In kind it is in vivo, Sprague-Dawley rats. As for the experimental part: Timed pregnant female Sprague-Dawley rats (Harlan, Indianapolis, Ind.) were caged singly in a room controlled for ambient temperature (23±1° C.), humidity (50±10%) and a 12 h light/dark cycle (6:00 am-6:00 pm). Food and water were available ad libitum. All animal care and use for procedures were approved by the Institutional Animal Care and Use Committee (IACUC) of Midwestern University. In order to avoid variation due to hormonal changes, male pups only were separated and utilized for this study. The pups were euthanized via decapitation on postnatal day 1, 7, 14 and 28. The brains were aseptically removed and processed for either immunofluorescent labeling or immunoblot analysis of ETB receptors, VEGF and NGF.
(§1) After 21 days of gestation, 70 male and 65 female pups were born to 10 pregnant female rats. 30 male pups were randomly selected for Study I, and divided into 4 groups as follows: Group 1=male pups euthanized on postnatal day 1 (N=10); Group 2=male pups euthanized on postnatal day 7 (N=10); Group 3=male pups euthanized on postnatal day 14 (N=5); Group 4=male pups euthanized on postnatal day 28 (N=5). An additional 20 male pups were randomly selected for Study II, and divided into 2 groups: Control (N=10) and IRL-1620-treated (N=10). Pups in Study II received 3 doses of either isotonic saline (1 ml/kg) or ETB receptor agonist IRL-1620 (5 μg/kg; American Peptide Co, Inc., Sunnyvale, Calif.) on postnatal day 21. The doses were given intravenously at 2 hour intervals. All pups were weighed and evaluated for developmental and behavioral characteristics at postnatal day 1, 7, 14 and 28. Developmental and behavioral characteristics included active vs. sluggish behavior, healthy vs. shedding fur, licking, grooming, aggressive behavior, defecation, urination and wet dog shakes.
Immunofluorescently labeled antibodies were used to determine the expression of ETB receptors, VEGF and NGF in the developing rat brain. Male rat pups were euthanized via decapitation, and the brains were removed at postnatal day 1, 7, 14 and 28. The brains were washed in isotonic saline and transferred to a 4% paraformaldehyde (PFA)/NaPO4 buffer solution for 2 hours to fix the tissue, followed by suspension in a 20% sucrose/4% PFA solution for 48 hours at 4° C. Brains were then sliced into 20 μm thick coronal sections at −30° C. using a cryostat (Microtome cryostat HM 505 E; Walldorf, Germany). Sections were processed for immunofluorescent staining as described by Loo, et al. (Loo et al., 2002), with minor modifications. […] Fluorescence was detected using an inverted fluorescent microscope (Nikon Eclipse TiE, Melville, N.Y.). […]

For test [2], the system named is middle cerebral artery occluded rats. Conditions: acute study, 24 hours (Leonard et al., 2011); cited from earlier work.
Test [3] concerns postnatal rat brain. The test can be described thus: Immunoblotting of VEGF, NGF and ETB receptors in the postnatal rat brain after IRL-1620. The class given is in vivo, Sprague-Dawley rats.
Source text: as §1
Protein levels of VEGF, NGF and ETB receptors in the postnatal rat brain of animals in Study II were estimated using immunoblotting technique. Animals were decapitated and the brains were removed on postnatal day 28, which is 7 days post administration of either saline or ETB receptor agonist, IRL-1620. The tissue was homogenized in 10× (w/v) RIPA lysis buffer, and protein concentration was determined according to the Lowry method, using bovine serum albumin as standard (Lowry et al., 1951). Protein (60 μg) was denatured in Laemmli sample buffer and resolved in 10% SDS-PAGE, and then transferred onto nitrocellulose membrane. […] Protein expression was analyzed using Image J (NIH) software.

The next test relates to normal rats. Conditions: intravenous; cited from earlier work.
Where [4] appears, read: IRL-1620 on postnatal day 21, brain at day 28, vs control.

*1 amine or outer side, *2 acyl side, *3 side chain or, on linkers, in order; H or OH if unused. Where no end group is shown, it is not given here. Suc = O=C(CCC(=O)[*:2])[*:1]

With “Suc-Asp-Glu-Glu-Ala-Val-Tyr-Phe-Ala-His-Leu-Asp-Ile-Ile-Trp (Suc-DEEAVYFAHLDIIW) [IRL-1620]”, in the test with postnatal rat brain [1], the “Intensity of ETB receptor staining in cerebral vasculature and cortex” value was “significantly higher”; the “Intensity of NGF staining and number of NGF-positive cells, cortex or subventricular zones” value is listed as “did not alter”; the “Intensity of VEGF staining” value is given as “further increase”; the “Number of VEGF-positive vessels” value was “further increase”. In addition, the “Reduction of infarct volume” value in test [2] is 83.66%. Moreover, in the test with postnatal rat brain [3] (IRL-1620 5 μg/kg IV x3 on postnatal day 21, brain at day 28, vs control), the “Protein expression of ETB receptors (immunoblotting)” value is on record as “increased”. For the same substance, in the test on postnatal rat brain [3] (setting [4]), the “Overall VEGF expression (immunoblotting)” value is on record as “significantly enhanced” and the “Overall expression of NGF (immunoblotting)” value is listed as “comparable”. The “Cerebral blood flow (CBF)” value in the test on normal rats was “significant elevation”.
